Where a name gives a salt, the structure may show the parent alone. Square brackets hold non-standard residues; d marks the D form. Peptide text beside a SMILES is read from it. * marks the point of attachment. Propyl(2R-PamO,3-PamO) = CCCCCCCCCCCCCCCC(=O)OC[C@H](C*)OC(=O)CCCCCCCCCCCCCCC
Tests used:
[1] = system: Non adherent bone marrow cells of BALB/c mice; assay: Enhancing development of AchE positive cells (fluorescence method); assay type: cell-based; conditions: 10 ng/ml; 37°C, 5 days; AchE activity in the group without compound is shown as 1
Source text: Action of compound (I) on enhancing development of acetylcholine esterase (hereinafter abbreviated as AchE) positive cells are shown in Table 4.
The AchE activity was studied according to a fluorescence method (Ishibashi et al., Proceedings of the National Academy of Science U.S.A., Vol. 86, pp. 5953 to 5957, 1989).
Non adherent bone marrow cells of BALB/c mice (1 x 10⁶ cells/ml) were suspended in Iscove's modification of Dulbecco's medium (Gibco BRL Inc., U.S.A.) containing 1% Neutridoma-SP (Boheringer Mannhaim, Germany). Twenty-five µl of a test compound solution in an adequate concentration was inoculated in a 96-well plate. To each of these solutions in the well was added 100 µl of the non adherent bone marrow cells suspension. After incubation at 37°C for 5 days, 25 µl of 6% glutaraldehyde aqueous solution was added to the well. After standing at 4°C for 30 minutes the mixture was centrifuged (850 x g) at 5°C for 5 minutes and the supernatant was removed. […] To this was added 10 µl of 0.4 mM 7-diethylamino-3-(4'-maleimidylphenyl)-4-methylcoumarin aqueous solution and 100 µl of buffer (pH 5.0) containing 0.2% POPE, 1 mM EDTA and 50 mM sodium acetate and fluorescence emission was determined on a fluorometer (excitation wave length: 365 nm, fluorescence wave length: 450 nm).

[2] = system: leukocytes; assay: Enhancing the number of leukocytes in cyclophosphamide-treated mice; assay type: in vivo, CDF1/Crj mice; conditions: percentage relative to mice without cyclophosphamide (100%)
Protocol: Six weeks old female CDF1/Crj mice (5 animals per group) were subjected to the experiment. Each animal was orally administered with cyclophosphamide dissolved in physiological saline solution at a dose of 150 mg/kg. From the next day, each animal was administered subcutaneously with the compound suspended in 5% glucose at the following dosage for five days once a day. On the next day after completion of the administration, about 100 µl of peripheral blood was collected from orbital vein using an EDTA-treated glass capillary. Then, the number of leukocytes was counted using an automatic cell analyzer (Sysmex K-2000, Toa Medical Electronics, Japan).

[3] = system: bone marrow cells of BALB/c mice; assay: Enhancing proliferation of bone marrow cells of mice (MTT reduction method); assay type: cell-based; conditions: concentration giving 1.3 or more times the proliferation of the group without test compound; 37°C, 3 days
Protocol: Actions of compound (I) produced in the foregoing Examples on enhancing proliferation of bone marrow cells of mice are shown in Table 2.
To a RPMI 1640 culture medium [Bio-Wittaker Inc. (hereinafter abbreviated as BW), U.S.A.] containing 2 x 10⁶/ml of bone marrow cells of BALB/c mice, 2 mM of L-glutamine, 20 µg/ml of gentamicin (Flow Laboratories, Inc., Scotland), 10% fetal calf serum (BW, U.S.A.) was added a test compound in an adequate concentration, which was incubated at 37°C for 3 days in 5% carbon dioxide in air followed by determination of proliferation of the bone marrow cells by the MTT reduction method [Tada et al., Journal of Immunological Methods, Vol. 93, p.157, 1986].

[4] = system: mice; assay: Toxicity test, intravenous administration; assay type: in vivo; conditions: intravenous administration at 125 mg/kg
Protocol: Intravenous administration of trisodium salt of compound 1 at 125 mg/kg caused no death in mice.

CCCCCCCCCCCCCCCC(=O)OC[C@H](CSC[C@H](NC(=O)CN)C(=O)N[C@@H](CCC(=O)O)C(=O)NCC(=O)N[C@H](CCC(=O)O)C(=O)O)OC(=O)CCCCCCCCCCCCCCC [Compound 1, (2R,6R)-2-(H-Gly-amino)-6,7-bis(PamO)-4-THT-Glu-Gly-D-Glu-OH] (H-GC(Propyl(2R-PamO,3-PamO))EG[dE]-OH)
Degree of AchE Positive Cell [1]: 1.92
Number of leukocytes ([2]; 0.50 mg/kg/day subcutaneously for 5 days after oral cyclophosphamide 150 mg/kg): 137%
Minimal Effective Concentration (MEC, ng/ml) [3]: 6.25 ng/mL

CCCCCCCCCCCCCCCC(=O)OC[C@H](CSC[C@H](NC(=O)CN)C(=O)N[C@@H](CCC(=O)O)C(=O)NCC(=O)N[C@H](CCC(=O)O)C(=O)O)OC(=O)CCCCCCCCCCCCCCC [trisodium salt of compound 1] (H-GC(Propyl(2R-PamO,3-PamO))EG[dE]-OH)
death [4]: no death

CCCCCCCCCCCCCCCC(=O)OC[C@H](CSC[C@H](NC(=O)CNC(=O)[C@@H](N)CCC(=O)O)C(=O)N[C@@H](CCC(=O)O)C(=O)NCC(=O)N[C@H](CCC(=O)O)C(=O)O)OC(=O)CCCCCCCCCCCCCCC [Compound 4, (2R,6R)-2-(H-Glu-Gly-amino)-6,7-bis(PamO)-4-THT-Glu-Gly-D-Glu-OH] (H-EGC(Propyl(2R-PamO,3-PamO))EG[dE]-OH)
Number of leukocytes ([2]; 0.13 mg/kg/day subcutaneously for 5 days after oral cyclophosphamide 150 mg/kg): 108%

CCCCCCCCCCCCCCCC(=O)OC[C@H](CSC[C@H](NC(=O)[C@@H](N)Cc1ccc(O)cc1)C(=O)N[C@@H](CCC(=O)O)C(=O)NCC(=O)N[C@H](CCC(=O)O)C(=O)O)OC(=O)CCCCCCCCCCCCCCC [Compound 5, (2R,6R)-2-(H-Tyr-amino)-6,7-bis(PamO)-4-THT-Glu-Gly-D-Glu-OH] (H-YC(Propyl(2R-PamO,3-PamO))EG[dE]-OH)
Minimal Effective Concentration (MEC, ng/ml) [3]: 6.25 ng/mL

Source: patent EP0638588A1, “Derivatives of 6,7-Dihydroxy-4-thiaheptonic acid and their use” (TAKEDA CHEMICAL INDUSTRIES, LTD., priority 1993, dated 1995)
